One experiment has as its system C. albicans ATCC 44859. Put plainly: Test 1: Action against Candida albicans (in vitro). Particulars: ATCC44859, minimum concentration with apparent suppression of mycelial type growth vs medicament-free control, MEM medium + 10% fetal bovine serum, 37° C., 24 hours, CO2, read-out: Terminal point C. albicans. The class given is cell-based. How it is done:
Test 1: Action against Candida albicans (in vitro)
The resulting mixture was incubated at 37° C. for 24 hours in a CO2 gas incubator. After incubation, a morphological change of C. albicans was observed under an inverted microscope. The minimum medicament concentration permitting the apparent suppression of mycerial type growth compared with that of a medicament-free control was designated as a terminal point (ng/ml).

The subject of a further experiment is A. fumigatus IFM 40808. Put plainly: Test 2: Action against Aspergillus fumigatus (in vitro). The class given is cell-based. Particulars: IFM40808, 0.165M MOPS-containing RPMI 1640, pH 7, almar Blue, 35° C., 48 hours. How it is done:
Test 2: Action against Aspergillus fumigatus (in vitro)
They were incubated at 35° C. for 48 hours.

A further experiment relates to C. albicans IFM 40009. Description: Test 3: Action against Candida albicans (in vivo). Also noted: species or system C. albicans; mice (ICR (CRJ: CD-1), male, 4-week-old). As to conditions: mice infected i.v. with C. albicans, 1.25 mg/kg oral, 1 hour after inoculation then once a day for 4 days from 24 hours; for Surviving mice on Day 14, number of surviving mice/total number in group: control 0/11; for Average Survival days: control 4.5 days, *** p < 0.001 relative to control. How it is done: Test 3: Action against Candida albicans (in vivo)
After 4-week-old, male, ICR (CRJ: CD-1) mice were fasted for 6 hours, C. albicans IFM 40009 was inoculated to the tail vein of each of the mice to give an amount of 3.0×10^6 cells/mouse, whereby infection was caused. A control group consisted of 11 mice, while a medicament-administered group consisted of 5 mice. The medicament dissolved in 20% polyethylene glycol was orally administered 1 hour after the inoculation of the fungus and from 24 hours after the inoculation, it was administered once a day for 4 straight days, each in an amount of 1.25 mg/kg. The survival condition on Day 14 after the infection was compared. In addition, the survival days of the control group and the medicament-administered group were detected by the Kaplan-Meier method (Cox mantel test). Incidentally, Fluconazole was employed as a medicament for comparison.

The values below come from patent US6184396A, “Triazole derivative or salt thereof, preparation process thereof and pharmaceutical containing said compound as an effective ingredient” (SSP Co., Ltd., priority 1998, dated 2001).

SMILES strings stand for the structures. Values after ≈ are worked out from the molar mass of the structure shown. Bounds are passed on as bounds.

Turning to `O=S(=O)(C1CC1)C(F)(F)C(O)(Cn1cncn1)c1ccc(F)cc1F` (racemic) [Example 12, 1-(cyclopropylsulfonyl)-2-(2,4-difluorophenyl)-1,1-difluoro-3-(1H-1,2,4-triazol-1-yl)-2-propanol], the MIC in the experiment with C. albicans ATCC 44859 came out at 0.0313 µg/mL. In the experiment on A. fumigatus IFM 40808, this compound gave an MIC of 8 µg/mL (≈ 21.1 µM). In the experiment on C. albicans IFM 40009, the “Surviving mice on Day 14, number of surviving mice/total number in group” value is 4/5 and the “Average Survival days” value turned out to be 14.00 days.

For `O=S(=O)(C1CC1)C(F)(F)C(O)(Cn1cncn1)c1ccc(F)cc1F` (single isomer, unassigned; (-)) [Example 17(2), (-)-1-(Cyclopropylsulfonyl)-2-(2,4-difluorophenyl)-1,1-difluoro-3-(1H-1,2,4-triazol-1-yl)-2-propanol], the MIC in the experiment on C. albicans ATCC 44859 amounted to 0.0156 µg/mL; in the experiment with A. fumigatus IFM 40808 it was 2 µg/mL (≈ 5.27 µM).

Turning to `OC(Cn1cncn1)(c1ccc(F)cc1F)C(F)(F)SC1CC1` (stereo not drawn) [Example 7, 1-(cyclopropylthio)-2-(2,4-difluorophenyl)-1,1-difluoro-3-(1H-1,2,4-triazol-1-yl)-2-propanol], the MIC in the experiment on C. albicans ATCC 44859 amounted to 0.0078 µg/mL; in the experiment on A. fumigatus IFM 40808, 2 µg/mL (≈ 5.76 µM).

As for `OC(Cn1cncn1)(c1ccc(F)cc1)C(F)(F)SC1CC1` (stereo not drawn) [Example 8, 1-(cyclopropylthio)-1,1-difluoro-2-(4-fluorophenyl)-3-(1H-1,2,4-triazol-1-yl)-2-propanol], the MIC in the experiment with C. albicans ATCC 44859 turned out to be 0.0156 µg/mL; against A. fumigatus IFM 40808 it was 8 µg/mL (≈ 24.3 µM).

Regarding `COC(Cn1cncn1)(c1ccc(F)cc1F)C(F)(F)SC1CC1` (stereo not drawn) [Example 10, 1-[3-(cyclopropylthio)-2-(2,4-difluorophenyl)-3,3-difluoro-2-methoxypropyl]-1H-1,2,4-triazole], the MIC in the experiment on C. albicans ATCC 44859 was 0.0313 µg/mL; in the experiment on A. fumigatus IFM 40808 it was 32 µg/mL (≈ 88.6 µM).

With `COC(Cn1cncn1)(c1ccc(F)cc1F)C(F)(F)S(=O)(=O)C1CC1` (stereo not drawn) [Example 15, 1-[3-(cyclopropylsulfonyl)-2-(2,4-difluorophenyl)-3,3-difluoro-2-methoxypropyl]-1H-1,2,4-triazole], in the experiment with C. albicans IFM 40009, the “Surviving mice on Day 14, number of surviving mice/total number in group” value is listed as 4/5 and the “Average Survival days” value came to 13.4 days.

For the compound `OC(Cn1cncn1)(Cn1cncn1)c1ccc(F)cc1F` [Fluconazole, reference compound], the MIC with C. albicans ATCC 44859 amounted to 0.25 µg/mL. The compound also showed an MIC in the experiment with A. fumigatus IFM 40808 above 128 µg/mL. In the experiment with C. albicans IFM 40009, the “Surviving mice on Day 14, number of surviving mice/total number in group” value is listed as 1/5 and the “Average Survival days” value amounted to 11.0 days.
